Literature values, collected in patent US20210000972A1, “NANOPARTICLES FOR SUSTAINED OPHTHALMIC DRUG DELIVERY AND METHODS OF USE” (2C TECH CORP., priority 2017, published 2021).
Where two headings read alike, the source gives them in different places. Values belong to the compound of their own block, whether it stands above or below them.

- duration of constant concentration (sustained release form (embedded in a lactic co-glycolic copolymer)): one
Compound: C[C@@H]1C[C@H]2[C@@H]3CCC4=CC(=O)C=C[C@]4(C)[C@@]3(F)[C@@H](O)C[C@]2(C)[C@@]1(O)C(=O)CO [dexamethasone]

- half-life (intravitreal): 12 h
Compound: O=C(O)P(=O)(O)O [foscarnet]

- half-life (intravitreal suspension, 4 mg): 576 h
- time the drug lasted (intravitreal suspension, the two doses administered (4 mg and 16 mg)): 4 to 6 months
Compound: CC1(C)O[C@@H]2C[C@H]3[C@@H]4CCC5=CC(=O)C=C[C@]5(C)[C@@]4(F)[C@@H](O)C[C@]3(C)[C@]2(C(=O)CO)O1 [triamcinolone acetonide]

Compound: Avastin: an antibody used for the treatment of macular edema
- half-life (intravitreal antibody): 140 h
- time detectable (intravitreal antibody): > 30 days
- systemic delivery after intravitreal administration (untreated contralateral eye): found in the untreated contralateral eye
